pIC50: −log10 of the molar value.
Target: T1, Human aromatase enzyme (Homo sapiens, UniProt P11511)
T1 construct: The enzyme preparation was used without further purification; from tissue; host or cells: human placenta, microsomal fraction (100000 x g precipitate)
T1 sequence (P11511 1-503): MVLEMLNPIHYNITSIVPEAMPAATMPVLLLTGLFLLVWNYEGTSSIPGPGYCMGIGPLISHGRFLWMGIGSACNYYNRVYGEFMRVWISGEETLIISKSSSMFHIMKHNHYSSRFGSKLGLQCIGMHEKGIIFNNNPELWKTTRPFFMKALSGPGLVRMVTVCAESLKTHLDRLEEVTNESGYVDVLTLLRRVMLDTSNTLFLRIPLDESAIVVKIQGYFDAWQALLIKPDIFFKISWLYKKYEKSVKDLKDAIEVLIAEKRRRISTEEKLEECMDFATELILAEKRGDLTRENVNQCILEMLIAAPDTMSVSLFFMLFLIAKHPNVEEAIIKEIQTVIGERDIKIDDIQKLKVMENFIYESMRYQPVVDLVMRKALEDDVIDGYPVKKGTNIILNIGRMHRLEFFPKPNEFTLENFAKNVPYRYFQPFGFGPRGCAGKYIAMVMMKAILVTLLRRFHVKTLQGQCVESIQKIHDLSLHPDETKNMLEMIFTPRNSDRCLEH
Assay: In vitro aromatase inhibition assay (3H2O release from 1,2[3H]-androstene-3,17-dione)
Format: biochemical

With `Cc1cc(C)cc(CCCCC(c2ccc(F)cc2)c2c[nH]cn2)c1` (centres unmarked) [Compound 5b, 4-[5-(3,5-dimethylphenyl)-1-(4-fluorophenyl)-pentyl]-1H-imidazole] the pIC50 was 5.12.
Work on `c1ccc(CCC(c2ccccc2)c2cncn2Cc2ccccc2)cc1` (centres unmarked) [Compound 8b, 1-benzyl-5-(1,3-diphenylpropyl)-1H-imidazole] yielded a pIC50 of 4.52.
`COc1cccc(CCCCC(c2ccc(F)cc2)c2c[nH]cn2)c1` (centres unmarked) [Compound 11b, 4-[1-(4-fluorophenyl)-5-(3-methoxyphenyl)pentyl]-1H-imidazole] gave a pIC50 of 5.59.
`COc1ccc(CCCCC(c2ccc(F)cc2)c2c[nH]cn2)cc1` (centres unmarked) [Compound 12b, 4-[1-(4-fluorophenyl)-5-(4-methoxyphenyl)pentyl]-1H-imidazole] gave a pIC50 of 5.52.
In the case of `Cc1cccc(C)c1CCCCC(c1ccc(F)cc1)c1c[nH]cn1` (centres unmarked) [Compound 13b, 4-[1-(4-fluorophenyl)-5-(2,6-dimethylphenyl)-pentyl]-1H-imidazole], the pIC50 was 5.11.

From patent EP0390558B1, “Aromatase inhibiting 4(5)-imidazoles” (ORION-YHTYMÄ OY, priority 1989, dated 1990)
